Earlier results, collected in patent publication US20260034249A1, “COMPOSITIONS AND METHODS FOR MODIFYING FERTILITY” (The Broad Institute, Inc., priority 2023, published 2026).

Tests used:
MT2 over MT1 receptor = biological target: T1, MT2 over MT1 receptor (Homo sapiens, UniProt P49286); conditions: selectivity MT2 vs MT1
T1 sequence (P49286 1-362): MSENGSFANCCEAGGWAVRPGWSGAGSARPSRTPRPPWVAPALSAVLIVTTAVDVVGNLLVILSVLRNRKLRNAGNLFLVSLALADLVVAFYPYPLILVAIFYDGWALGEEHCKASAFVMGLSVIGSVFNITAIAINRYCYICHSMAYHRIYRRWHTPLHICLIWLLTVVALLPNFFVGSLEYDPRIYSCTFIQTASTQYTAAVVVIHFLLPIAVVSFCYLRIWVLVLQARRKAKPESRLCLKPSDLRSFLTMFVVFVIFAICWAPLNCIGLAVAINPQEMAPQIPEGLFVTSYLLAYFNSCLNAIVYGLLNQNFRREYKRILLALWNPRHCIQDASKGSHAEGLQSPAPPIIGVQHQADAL

Row | Compound | Vim expression (Vim) | further results
1 | Oc1ccc(C=Cc2cc(O)cc(O)c2)cc1 [resveratrol] | Decreases Vim expression | 
2 | COc1cc(C2Oc3cc([C@H]4Oc5cc(O)cc(O)c5C(=O)[C@@H]4O)ccc3OC2CO)ccc1O (some centres unmarked) [Silibin] | Decreases Vim expression | 
3 | CC(=O)NCCc1c(Cc2ccccc2)[nH]c2ccccc12 [Luzindole] |  | affinity for MT2 over MT1 receptor (MT2 over MT1 receptor): 25-fold affinity for MT2 over
4 | C/C1=C/C(=O)O[C@@H]2C[C@@H](CC[C@H](C)/C=C\C=C\CC1)O[C@@](O)([C@@H]1CSC(=O)N1)C2 [Latrunculin A] |  | binding of TMSB4X to actin (TMSB4X): Sponge toxin that prevents
5 | C[C@@H]1CC[C@@]2(OC1)O[C@H]1C[C@H]3[C@@H]4CC=C5C[C@@H](O[C@@H]6O[C@H](CO)[C@@H](O[C@@H]7O[C@@H](C)[C@H](O)[C@@H](O)[C@H]7O)[C@H](O)[C@H]6O[C@@H]6O[C@@H](C)[C@H](O)[C@@H](O)[C@H]6O)CC[C@]5(C)[C@H]4CC[C@]3(C)[C@H]1[C@@H]2C [dioscin] | Decreases Vim expression | 
